Among the data in patent US6040305A, “Compounds useful for inhibition of farnesyl protein transferase” (Schering Corporation, priority 1997, dated 2000) are IC50 values, retold here.

Read-outs that look alike come from different tables or passages of the source. Some results are limits rather than exact numbers.

Assay [1] deals with T1, farnesyl protein transferase (Homo sapiens, UniProt P49354+P49356). Kind of assay: FPT IC50, inhibition of farnesyl protein transferase, in vitro enzyme assay (H-ras). It counts as biochemical. How it is done:
(§1) FPT IC50 (inhibition of farnesyl protein transferase, in vitro enzyme assay) and COS Cell IC50 (Cell-Based Assay) were determined following the assay procedures described in WO 95110516, published Apr. 20, 1995. GGPT IC50 (inhibition of geranylgeranyl protein transferase, in vitro enzyme assay), Cell Mat Assay, and anti-tumor activity (in vivo anti-tumor studies) could be determined by the assay procedures described in WO 95/10516. The disclosure of WO 95/10516 is incorporated herein by reference thereto.

For assay [2], the target named is T1, farnesyl protein transferase. Kind of assay: FPT IC50, inhibition of farnesyl protein transferase (K-ras). It counts as biochemical. How it is done:
as §1

Another assay concerns COS Cell. Kind of assay: COS Cell IC50 (Cell-Based Assay). How it is done:
as §1

The next assay deals with Human tumor cells. Nature of the assay: Soft Agar Assay (anchorage-independent growth). The following applies: 10-16 days at 37° C., 5% CO2, MTT staining, read-out: Soft Agar FPT IC50. In kind it is cell-based. How it is done: Anchorage-independent growth is a characteristic of tumorigenic cell lines. Human tumor cells are suspended in growth medium containing 0.3% agarose and an indicated concentration of a farnesyl transferase inhibitor. The solution is overlayed onto growth medium solidified with 0.6% agarose containing the same concentration of farnesyl transferase inhibitor as the top layer. After the top layer is solidified, plates are incubated for 10-16 days at 37° C. under 5% CO2 to allow colony outgrowth. After incubation, the colonies are stained by overlaying the agar with a solution of MTT (3-[4,5-dimethyl-thiazol-2-yl]-2,5-diphenyltetrazolium bromide, Thiazolyl blue) (1 mg/mL in PBS). Colonies can be counted and the IC50 's can be determined.

As a reminder, the IC50 is the concentration that inhibits the measured activity by half. `NC(=O)CN1CCC(CC(=O)N2CCC([C@H]3c4ncc(Br)cc4CCc4cc(Cl)cc(Br)c43)CC2)CC1` [Compound 2.0]: the IC50 in assay [1] is 1.8 nM; in assay [2], 8.6 nM; in the assay with COS Cell, 6 nM; in the assay on Human tumor cells it was 70 nM.
The matching figures for `CON(C)C(=O)CN1CCC(CC(=O)N2CCC([C@H]3c4ncc(Br)cc4CCc4cc(Cl)cc(Br)c43)CC2)CC1` [Compound 3.0]: 3.9 nM, 26 nM, 20 nM and 175 nM.
The matching figures for `CCN(CC)C(=O)CN1CCC(CC(=O)N2CCC([C@H]3c4ncc(Br)cc4CCc4cc(Cl)cc(Br)c43)CC2)CC1` [Compound 4.0]: 4.3 nM, 46 nM, 40 nM and 300 nM.
For the compound `O=C(CN1CCC(CC(=O)N2CCC([C@H]3c4ncc(Br)cc4CCc4cc(Cl)cc(Br)c43)CC2)CC1)NCc1ccccc1` [Compound 5.0], the IC50 in assay [1] was determined as 16 nM; in assay [2] it was 51.9 nM; with COS Cell, 840 nM.
With `O=C(CN1CCC(CC(=O)N2CCC([C@H]3c4ncc(Br)cc4CCc4cc(Cl)cc(Br)c43)CC2)CC1)N[C@@H]1O[C@H](CO)[C@H](O)[C@H](O)[C@H]1O` [Compound 6.0], the IC50 in assay [1] was 3.4 nM; in assay [2], 17 nM; in the assay with COS Cell, 300 nM; with Human tumor cells (value given in M) it was greater than 500 nM.
Regarding `O=C(CC1CCN(CC(=O)N2CCOCC2)CC1)N1CCC([C@H]2c3ncc(Br)cc3CCc3cc(Cl)cc(Br)c32)CC1` [Compound 7.0], the IC50 in assay [1] was determined as 5 nM; in assay [2], 20 nM; in the assay on COS Cell, 25 nM; in the assay with Human tumor cells, 100 nM.
For `CC(C)(C)OC(=O)N1CCN(C(=O)CN2CCC(CC(=O)N3CCC([C@H]4c5ncc(Br)cc5CCc5cc(Cl)cc(Br)c54)CC3)CC2)CC1` [Compound 8.0], the concentration for half-maximal inhibition (IC50) in assay [1] is 18 nM; in assay [2] it was 42 nM; in the assay with COS Cell it was 22 nM; in the assay with Human tumor cells, greater than 500 nM.
The matching figures for `O=C(CC1CCN(CC(=O)N2CCNCC2)CC1)N1CCC([C@H]2c3ncc(Br)cc3CCc3cc(Cl)cc(Br)c32)CC1` [Compound 9.0]: 4.3 nM, 17 nM, 120 nM and 500 nM.
Take `O=C(CC1CCN(CC(=O)N2CCc3ccccc32)CC1)N1CCC([C@H]2c3ncc(Br)cc3CCc3cc(Cl)cc(Br)c32)CC1` [Compound 10.0]: the IC50 in assay [1] worked out at 5.4 nM; with COS Cell it was 100 nM.
In assay [1], `CC(C)(C)OC(=O)CN1CCC(CC(=O)N2CCC([C@H]3c4ncc(Br)cc4CCc4cc(Cl)cc(Br)c43)CC2)CC1` [Compound 11.0] showed a half-maximal inhibitory concentration (IC50) of 28 nM.
For `O=C(CC1CCN(CC(O)CO)CC1)N1CCC([C@H]2c3ncc(Br)cc3CCc3cc(Cl)cc(Br)c32)CC1` (stereo partly shown) [Compound 20.0], the IC50 in assay [1] was 2 nM; in the assay with COS Cell, less than 10 nM; in the assay with Human tumor cells it was 60 nM.
